{"source": "paper PMC12006963", "about": "“Application of Deuterium in an M1 Positive Allosteric Modulator Back-Up Program: The Discovery of VU6045422” (ACS Chemical Neuroscience, 2025)", "key": {"M1": {"target": "T1, M1 (Homo sapiens, UniProt P11229)", "T1 construct": "expressed in transfected cells", "T1 sequence (P11229 1-460)": "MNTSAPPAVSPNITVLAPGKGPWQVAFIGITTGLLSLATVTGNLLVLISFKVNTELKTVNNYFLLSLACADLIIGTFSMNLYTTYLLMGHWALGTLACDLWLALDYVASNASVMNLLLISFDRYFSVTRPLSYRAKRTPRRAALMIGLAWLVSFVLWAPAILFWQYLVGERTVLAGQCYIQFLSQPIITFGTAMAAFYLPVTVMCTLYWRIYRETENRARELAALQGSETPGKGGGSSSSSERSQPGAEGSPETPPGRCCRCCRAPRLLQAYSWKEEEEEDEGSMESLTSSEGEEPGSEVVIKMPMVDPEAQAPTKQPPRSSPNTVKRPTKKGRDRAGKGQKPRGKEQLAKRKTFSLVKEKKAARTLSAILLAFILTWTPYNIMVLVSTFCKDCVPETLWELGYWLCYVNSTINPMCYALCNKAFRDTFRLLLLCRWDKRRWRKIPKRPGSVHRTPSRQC", "assay": "Calcium mobilization, human M1 CHO cells (agonist and PAM modes)", "type": "cell-based", "conditions": "for M1 agonism: in words"}, "[1]": {"assay": "Plasma protein binding, equilibrium dialysis (rat)", "type": "in vitro ADME", "conditions": "pH 7.4, read-out: fu,plasma", "description": "(§1) page 5: Drug Metabolism Methods: In vitro Plasma protein binding and Brain homogenate binding: Determination of fraction unbound (f u) in plasma was conducted in vitro via equilibrium dialysis using HTDialysis (HTD) membrane plates. The top half of the plate was filled with 100 uL of Dubelco’s Phosphate Buffered Saline, pH 7.4 (DPBS). Compounds were diluted into plasma from each species (5 µM final concentration), which was aliquoted in triplicate to the ‘bottom half’ of the prepared HTD plate wells. The HTD plate was sealed and incubated for 6 hours at 37 °C. Following incubation, each well (both top and bottom halves) were transferred (20 µL) to the corresponding wells of a 96- shallow-well (V-bottom) plate. The daughter plates were then matrix-matched (DPBS side wells received equal volume of plasma, and plasma side wells received equal volume of DPBS), and extraction solution (120 µL; acetonitrile containing 50 nM carbamazepine as IS) was added to all wells of both daughter plates to precipitate protein and extract test article. The plates were then sealed and centrifuged (3500 rcf) for 10 minutes at ambient temperature. Supernatant (60 µL) from each well of the daughter plates was then transferred to the corresponding wells of new daughter plates (96-shallow-well, V bottom) containing water (Milli-Q, 60 µL/well), and the plates were sealed in preparation for LC-MS/MS analysis (see LC-MS/MS analysis method below). The unbound fraction (f u) was calculated following the equation below, and mean values for each species were calculated from 3 replicates. […] Fraction unbound for both plasma and brain samples was determined using Equation 4. f = Concbuffer u Concplasma Equation 4 Determination of fraction unbound in plasma. […]"}, "[2]": {"assay": "Plasma protein binding, equilibrium dialysis (cyno)", "type": "in vitro ADME", "conditions": "cynomolgus monkey, pH 7.4, read-out: fu,plasma", "description": "as §1"}, "[3]": {"assay": "Hepatocyte metabolite identification (rat)", "type": "in vitro ADME", "conditions": "rat hepatocytes, 4 h incubation", "description": "Prior to full characterization of deuterated analogues 3 and 5, they were incubated in rat, dog, monkey, and human hepatocytes, along with 1, to determine the amount of parent remaining, as well as the degree of undesired oxidative metabolites 2, 4, and 6 (Figure 2). […] For the gem-dideutero congener 3, metabolic stability was improved in vitro. […] Thus, in hepatocytes in vitro, the kinetic isotope effect engendered greater metabolic stability of the labile hot spot on the lactam. It remained to be seen if this effect would translate in vivo, but we first had to assess the impact of the deuterated analogues on molecular pharmacology, in vitro DMPK, standard low-dose in vivo DMPK and, if warranted, in vivo efficacy in a rat novel object recognition (NOR) behavioral assay."}, "[4]": {"conditions": "PAM mode, read-out: hM1 PAM EC50"}, "[5]": {"conditions": "agonist mode, read-out: hM1 Agonist EC50"}}, "note": "Read-outs that look alike come from different tables or passages of the source."}
{"smiles": "[2H]C1([2H])c2ncccc2C(=O)N1Cc1c(F)cc(-c2cccc3nn(C)cc23)cc1F", "note": "[compound 3]", "values": [{"measurement": "hM1 PAM AChmax (%)", "setting": "M1", "value": 81, "unit": "%"}, {"measurement": "EC50", "setting": "M1; [4]", "value": 0.624, "unit": "µM"}, {"measurement": "EC50", "setting": "M1; [5]", "value": "> 30", "unit": "µM"}, {"measurement": "M1 agonism", "setting": "M1", "value": "minimal M1 agonism"}, {"measurement": "hM1 PAM AChmax (%) (pEC50 line)", "setting": "M1; mean ± spread", "value": "78±2.2", "unit": "%"}, {"measurement": "fraction unbound at 6 h, 5 µM", "setting": "[1]", "value": 0.034}, {"measurement": "fraction unbound at 6 h, 5 µM", "setting": "[2]", "value": 0.039}, {"measurement": "% Total Peak Area, parent remaining", "setting": "[3]", "value": 87.0, "unit": "%"}]}
{"smiles": "Cn1cc2c(-c3cc(F)c(CN4Cc5ncccc5C4=O)c(F)c3)cccc2n1", "note": "[compound 1]", "values": [{"measurement": "hM1 PAM AChmax (%)", "setting": "M1", "value": 80, "unit": "%"}, {"measurement": "EC50", "setting": "M1; [4]", "value": 0.492, "unit": "µM"}, {"measurement": "EC50", "setting": "M1; [5]", "value": "> 30", "unit": "µM"}, {"measurement": "hM1 PAM AChmax (%) (pEC50 line)", "setting": "M1; mean ± spread", "value": "71±9.9", "unit": "%"}, {"measurement": "fraction unbound at 6 h, 5 µM", "setting": "[1]", "value": 0.028}, {"measurement": "fraction unbound at 6 h, 5 µM", "setting": "[2]", "value": 0.059}, {"measurement": "% Total Peak Area, parent remaining", "setting": "[3]", "value": 76.3, "unit": "%"}]}
{"smiles": "[2H]C1([2H])c2ncccc2C(=O)N1Cc1c(F)cc(-c2cccc3nn(C([2H])([2H])[2H])cc23)cc1F", "note": "[compound 5]", "values": [{"measurement": "hM1 PAM AChmax (%)", "setting": "M1", "value": 80, "unit": "%"}, {"measurement": "EC50", "setting": "M1; [4]", "value": 0.192, "unit": "µM"}, {"measurement": "EC50", "setting": "M1; [5]", "value": "> 30", "unit": "µM"}, {"measurement": "M1 agonism", "setting": "M1", "value": "minimal M1 agonism"}, {"measurement": "hM1 PAM AChmax (%) (pEC50 line)", "setting": "M1; mean ± spread", "value": "82±1.8", "unit": "%"}, {"measurement": "EC50", "setting": "M1; mean ± spread, n in cell, read-out: hM1 PAM pEC50 (converted)", "value": 0.182, "unit": "µM"}, {"measurement": "fraction unbound at 6 h, 5 µM", "setting": "[1]", "value": 0.026}, {"measurement": "fraction unbound at 6 h, 5 µM", "setting": "[2]", "value": 0.044}, {"measurement": "% Total Peak Area, parent remaining", "setting": "[3]", "value": 87.7, "unit": "%"}]}
